# Experimental data published in US4031205A, “Method for treating nervous bladder” (priority 1975, dated 1977).
# What was measured:
# [1] = Physical and chemical properties: solubility; assay type: physicochemical
# Source text: Ubiquinone n, for example, Ubiquinone 10(CoQ10), can be mainly obtained synthetically, though it is possible to extract the Ubiquinone from animal organs. Physical and chemical properties of Ubiquinone 10(CoQ10) produced synthetically are as follows.
# [2] = tested on: rats of Wistar strain; assay: Acute toxicity test in rats; details: for Maximum dose (no case of deaths): single dose, 7 days observation
# Source text: (§1) In order to evaluate the acute toxicity of a single high dose administration of Ubiquinone 10(CoQ10), male and female rats of Wistar strain and male and female mice of ICR-JCL strain were used, and oral, intramuscular, subcutaneous, and intravenous administrations were studied. For the oral administration of Ubiquinone 10(CoQ10), gum Arabic suspension was used. For the intramuscular, subcutaneous, and intravenous administrations, Ubiquinone 10(CoQ10) is used as its solution in surfactant, hydrogenated castor oil ethylene oxide addition product (HCO-60).
# (§2) Observation was carried out for 7 days, by using six males and six females for each dose group.
# [3] = tested on: mice of ICR-JCL strain; assay: Acute toxicity test in mice; details: for Maximum dose (no case of deaths): single dose, 7 days observation
# Source text: as §1, §2
# [4] = tested on: rabbits; assay: Subacute oral toxicity test in rabbits
# Source text: (§3) Ubiquinone 10(CoQ10) was compulsorily and orally administered every day for 23 days to each group consisting of six male rabbits and five female rabbits. […] On the 24th day, blood samples were collected from all the animals, and three males and two females from each group were then selectively autopsied.
# [5] = tested on: rats; assay: Teratogenesis test in rats; assay type: in vivo, rat; details: 6, 60, and 600 mg/Kg/day
# [6] = tested on: mice; assay: Teratogenesis test in mice; assay type: in vivo, mouse; details: 6, 60, and 600 mg/Kg/day
# [7] = in vivo
# Source text: as §1, §2
# The dose was 40, 200, and 1000 mg/Kg/day, respectively.
# as §3
# [8] = Clinical test: effectiveness of Ubiquinone 10(CoQ10) for nervous bladder; assay type: in vivo, human; set-up: Pressure curve Volume: unit not given beside the values; Residual urine / Urethral R. (Resistance): unit not given here
# Protocol: Six patients compalining of dysuria and incontinentia urinac due to nervous bladder were made sujects. Case 1 was nocturnal enuresis of unknown cause, Cases 2-4 were impairement of root of spinal nerve (nuclear type), and Cases 5 and 6 were spinal impairements (supra nuclear type).
# Hard capsules containing 5 mg of Ubiquinone 10(CoQ10) in the present invention were orally administered.
# The dose of 1-3 capsules each time was orally administered 3 times a day after meals for consecutive 3-4 weeks as a rule. Depending on cases, 10 mg of Ubiquinone 10(CoQ10) was concurrently injected. The measurement of bladder functions, that is, the measurement of the pressure curve in the bladder, was carried out in accordance with any conventional method. However, the quantitative bladder crystometrographic curve (BR) was obtained by a modified method for the crystometry. More particularly, the curve was prepared by observing the condition of weak autonomic rhythmical contraction of the bladder wall, when the sensitivity and the recording rate of a crystometer were risen after the infusion of a certain amount of the solution.
# [9] = tested on: rats of Wistar strain; details: rat, in vivo, po
# Protocol: (§4) Ubiquinone 10(CoQ10) was compulsorily and orally administered every day for 5 weeks to each group consisting of 10 male rats and 10 female rats of Wistar strain. The dose was 40, 200, and 1000 mg/Kg/day, respectively. Ubiquinone 10(CoQ10) was used in the form of gum Arabic suspension, while the solution containing gum Arabic alone was used as the control group. Collection of blood and urine samples and autopsies were carried out 5 weeks after the initiation of administration.
# [10] = tested on: rats of Wistar strain; assay: Chronic oral toxicity test
# Protocol: Ubiquinone 10(CoQ10) was compulsorily and orally administered to each group consisting of 10 male rats and 10 female rats of Wistar strain for consecutive 26 weeks in a ratio of 6 days a week. The dose was 6, 60 and 600 mg/Kg/day, respectively. ubiquinone 10(CoQ10) was used in the form of gum Arabic suspension, whereas the solution containing gum Arabic alone is used as the control group. Collection of blood and urine samples and autopsies were carried out 26 weeks after the administration.
# [11] = tested on: rats of Wistar strain; assay: Subacute toxicity test in rats
# Protocol: as §4
# [12] = 6, 60, 600 mg/Kg/day oral, 23 days
# [13] = Case 1, 20 days with 3 capsules
# [14] = Case 1, 20 days with 3 capsules, After (Before: +)
# [15] = Case 2, 30 days with 3 OR 20 days with 4 capsules
# [16] = Case 3, 30 days with 1 OR 3 capsules
# [17] = Case 4, 30 days with 3 capsules
# [18] = Case 5, 50 days with 1 capsule, After (Before: ++)
# [19] = Case 6, 30 days with 3 capsules
# [20] = 6, 60, 600 mg/Kg/day oral, 26 weeks
# [21] = spontaneous pneumonia and aspiration pneumonia due to erroneous administration, group not stated
structure (smiles),measurement,setting,value
COC1=C(OC)C(=O)C(CC=C(C)CCC=C(C)CCC=C(C)CCC=C(C)CCC=C(C)CCC=C(C)CCC=C(C)CCC=C(C)CCC=C(C)CCC=C(C)C)=C(C)C1=O [Ubiquinone 10(CoQ10)],solubility,[1]; acetone,soluble
same,solubility,[1]; benzene,easily soluble
same,solubility,[1]; carbon tetrachloride,easily soluble
same,solubility,[1]; chloroform,easily soluble
same,solubility,[1]; ethanol,insoluble
same,solubility,[1]; ether,soluble
same,solubility,[1]; methanol,hardly soluble
same,solubility,[1]; water,hardly soluble
same,"general condition, body weight, food intake and autopsy findings","[2]; rat, in vivo",no change was recognized
same,deaths,"[2]; rats, at the maximum dose in each administration route",no case of deaths
same,Maximum dose (no case of deaths),"[2]; rats, intramuscular",500 mg/kg
same,Maximum dose (no case of deaths),"[2]; rats, intravenous",250 mg/kg
same,Maximum dose (no case of deaths),"[2]; rats, oral",4000 mg/kg
same,Maximum dose (no case of deaths),"[2]; rats, subcutaneous",500 mg/kg
same,LD50,"[2]; rats, maximum doses of Table 1",far higher than the maximum dose mentioned above
same,deaths,"[3]; mice, at the maximum dose in each administration route",no case of deaths
same,Maximum dose (no case of deaths),"[3]; mice, intramuscular",500 mg/kg
same,Maximum dose (no case of deaths),"[3]; mice, intravenous",250 mg/kg
same,Maximum dose (no case of deaths),"[3]; mice, oral",4000 mg/kg
same,Maximum dose (no case of deaths),"[3]; mice, subcutaneous",500 mg/kg
same,LD50,"[3]; mice, maximum doses of Table 1",far higher than the maximum dose mentioned above
same,"general condition, body weight, food intake and autopsy findings","[3]; mouse, in vivo",no change was recognized
same,general condition and increase of body weight vs control,[4]; [12],no difference
same,weight of each organ,[4]; [12],no effect
same,hematological test and biochemical test of blood,"[4]; 6, 60, 600 mg/Kg/day oral, 23 days, 24th day",Abnormal findings were not obtained
same,macroscopical and histological observation,"[4]; hematoxylin.Eosine staining and liver fat staining, 23 days oral",abnormalities were not recognized
same,electron-microscopic observation of liver (minute structure),"[4]; seventh, 14th and 24th days",there were not recognized abnormal findings
same,toxicity (overall),"[4]; subacute oral, 23 days",there were not recognized the findings wherein the toxicity of Ubiquinone 10(CoQ10) will be suggested
same,"adverse effects in mothers, fetuses, and newborns",[5],no adverse effects were noted
same,"adverse effects in mothers, fetuses, and newborns",[6],no adverse effects were noted
same,overall safety,[7],"a very safe drug, without side-effects"
same,Residual urine,"[8]; Case 1 (nocturnal enuresis), 20 days with 3 capsules, After (Before: 35)",5
same,Effectiveness: Volume,[8]; [13],increased
same,Evaluation,[8]; [13],Effective
same,Urethral R. (Resistance),"[8]; Case 1, 20 days with 3 capsules, After (Before: 110)",100
same,Pressure curve Volume,"[8]; Case 1, 20 days with 3 capsules, After (Before: 295)",340
same,Basal Pressure BR,[8]; [14],Normal
same,Basal Pressure SR,[8]; [14],Normal
same,Residual urine,"[8]; Case 2 (spina bifida), 30 days with 3 capsules OR 20 days with 4 capsules, After (Before: 0)",0
same,Effectiveness: Volume,[8]; [15],increased
same,Evaluation,[8]; [15],Unchanged
same,Urethral R. (Resistance),"[8]; Case 2, 30 days with 3 OR 20 days with 4 capsules, After (Before: 30)",33
same,Pressure curve Volume,"[8]; Case 2, 30 days with 3 OR 20 days with 4 capsules, After (Before: 90)",110
same,Residual urine,"[8]; Case 3 (spina bifida), 30 days with 1 capsule OR 30 days with 3 capsules, After (Before: 75)",65
same,Effectiveness: Curve,[8]; [16],improved
same,Effectiveness: Residual urine,[8]; [16],decreased
same,Effectiveness: Volume,[8]; [16],increased
same,Evaluation,[8]; [16],Effective
same,Pressure curve Volume,"[8]; Case 3, 30 days with 1 OR 3 capsules, After (Before: 150)",200
same,Residual urine,"[8]; Case 4 (spina bifida), 30 days with 3 capsules, After (Before: 95)",70
same,Effectiveness: Anischuria,[8]; [17],improved
same,Effectiveness: BR,[8]; [17],appeared
same,Effectiveness: Volume,[8]; [17],increased
same,Urethral R. (Resistance),"[8]; Case 4, 30 days with 3 capsules, After (Before: 45)",49
same,Pressure curve Volume,"[8]; Case 4, 30 days with 3 capsules, After (Before: 130)",345
same,Basal Pressure BR,"[8]; Case 4, 30 days with 3 capsules, After (Before: ±)",Normal
same,Residual urine,"[8]; Case 5 (paraplegia), 50 days with 1 capsule, After (Before: 20)",0
same,Effectiveness: BR SR,"[8]; Case 5, 50 days with 1 capsule",normalized
same,Effectiveness: Curve,"[8]; Case 5, 50 days with 1 capsule",improved
same,Urethral R. (Resistance),"[8]; Case 5, 50 days with 1 capsule, After (Before: 76)",73
same,Pressure curve Volume,"[8]; Case 5, 50 days with 1 capsule, After (Before: 240)",260
same,Basal Pressure BR,[8]; [18],Normal
same,Basal Pressure SR,[8]; [18],Normal
same,Pressure curve Volume,"[8]; Case 6 (Myelitis Adhesiva), 30 days with 3 capsules, After (Before: 150)",150
same,Effectiveness: Curve,[8]; [19],improved
same,Effectiveness: SR,[8]; [19],improved
same,Pressure curve Type,"[8]; Case 6, 30 days with 3 capsules, After (Before: Reflex)",Reflex
same,"effective results and markedly effective results, number of cases",[8]; among the 6 cases,5 cases
same,macroscopical and histological observation,[9],abnormality was not recognized
same,biochemical tests of blood and urine vs control,[10]; [20],No significant change
same,body weight,[10]; [20],increased as same as that of the control group
same,weight of organ,[10]; [20],no significant increase and decrease
same,general condition vs control,"[10]; 6, 60, 600 mg/Kg/day oral, 6 days a week, 26 weeks",no difference
same,toxicity (overall),"[10]; chronic oral, 26 weeks",no toxicity was observed
same,macroscopical and histological observation vs control,"[10]; hemoxylin.Eosine staining and liver fat staining, 26 weeks",abnormalities were not recognized
same,leukocytal percentages,"[10]; some increase and decrease, not dose dependent, 26 weeks",within extent of physiological fluctuations
same,"animals died, females",[10]; [21],3
same,"animals died, males",[10]; [21],11
same,dead animals during the experiment,"[11]; spontaneous pneumonia and aspiration pneumonia due to error of administration, group not stated",4
same,toxicity (overall),"[11]; subacute oral, 5 weeks",there was not recognized the toxicity
